Assay results taken from patent US6358885B1, “Substituted phenylheterocyclic herbicides” (Mississippi State University, priority 1992, dated 2002).

Legend:
Experiment in all cases: Test F preemergence/postemergence greenhouse plant response rating 0 to 100
speedwell = type: in vivo, Veronica persica; conditions: POSTEMERGENCE, 0 to 100 scale
From the text: (§1) Compounds evaluated in this test were formulated in a non-phytoxic solvent and applied to the soil surface before plant seedlings emerged (preemergence application) and to plants that were in the one-to-four leaf stage (postemergence application). A sandy loam soil was used for the preemergence test while a mixture of sandy loam soil and greenhouse potting mix in a 60:40 ratio was used for the postemergence test. Test compounds were applied within approximately one day after planting seeds for the preemergence test. Plantings of these crops and weed species were adjusted to produce plants of appropriate size for the postemergence test. All plant species were grown using normal greenhouse practices. Crop and weed species include winter barley (Hordeum vulgare cv. ‘Igri’), blackgrass (Alopecurus myosuroides), chickweed (Stellaria media), downy brome (Bromus tectorum), field violet (Viola arvensis), galium (Galium aparine), green foxtail (Setaria viridis), kochia (Kochia scoparia), lambsquarters (Chenopodium album), speedwell (Veronica persica), rape (Brassica napus), ryegrass (Lolium multiflorum), sugar beet (Beta vulgaris cv. ‘USl’), sunflower (Helianthus annuus cv. ‘Russian Giant’), spring wheat (Triticum aestivum cv. ‘ERA’), winter wheat (Triticum aestivum cv. ‘Talent’), wild buckwheat (Polygonum convolvulus), wild mustard (Sinapis arvensis), wild oat (Avena fatua), and wild radish (Raphanus raphanistrum). Blackgrass, galium and wild oat were treated at two growth stages. […] Treated plants and untreated controls were maintained in a greenhouse for approximately 21 to 28 days, after which all treated plants were compared to untreated controls and visually evaluated. […] A dash response (-) means no test result.

green foxtail = type: in vivo, Setaria viridis; conditions: POSTEMERGENCE, 0 to 100 scale
From the text: as §1

chickweed = type: in vivo, Stellaria media; conditions: POSTEMERGENCE, 0 to 100 scale
From the text: as §1

kochia = type: in vivo, Kochia scoparia; conditions: POSTEMERGENCE, 0 to 100 scale
From the text: as §1

winter barley = type: in vivo, Hordeum vulgare cv. ‘Igri’; conditions: POSTEMERGENCE, 0 to 100 scale
From the text: as §1

lambsquarters = type: in vivo, Chenopodium album; conditions: POSTEMERGENCE, 0 to 100 scale
From the text: as §1

galium = type: in vivo, Galium aparine; conditions: POSTEMERGENCE, 0 to 100 scale; for Galium (1) plant response rating: stage (1) two to three leaves; for Galium (2) plant response rating: stage (2) approximately four leaves or initial tillering
From the text: as §1

wild mustard = type: in vivo, Sinapis arvensis; conditions: POSTEMERGENCE, 0 to 100 scale
From the text: as §1

spring wheat = type: in vivo, Triticum aestivum cv. ‘ERA’; conditions: POSTEMERGENCE, 0 to 100 scale
From the text: as §1

winter wheat = type: in vivo, Triticum aestivum cv. ‘Talent’; conditions: POSTEMERGENCE, 0 to 100 scale
From the text: as §1

wild oat = type: in vivo, Avena fatua; conditions: POSTEMERGENCE, 0 to 100 scale; for Wild oat (1) plant response rating: stage (1) two to three leaves; for Wild oat (2) plant response rating: stage (2) approximately four leaves or initial tillering
From the text: as §1

downy brome = type: in vivo, Bromus tectorum; conditions: POSTEMERGENCE, 0 to 100 scale
From the text: as §1

wild radish = type: in vivo, Raphanus raphanistrum; conditions: POSTEMERGENCE, 0 to 100 scale
From the text: as §1

ryegrass = type: in vivo, Lolium multiflorum; conditions: POSTEMERGENCE, 0 to 100 scale
From the text: as §1

sugar beet = type: in vivo, Beta vulgaris cv. ‘USl’; conditions: POSTEMERGENCE, 0 to 100 scale
From the text: as §1

SMILES: Fc1cc(Cl)c(OCCCl)cc1-c1nn2c(c1Cl)CCCC2 [Compound 49]
- Persn Speedwell plant response rating (speedwell; Rate 2 g/ha): 50
- Persn Speedwell plant response rating (speedwell; Rate 4 g/ha): 50
- Persn Speedwell plant response rating (speedwell; Rate 8 g/ha): 60
- Persn Speedwell plant response rating (speedwell; Rate 16 g/ha): 100
- Persn Speedwell plant response rating (speedwell; Rate 32 g/ha): 100
- Green foxtail plant response rating (green foxtail; Rate 2 g/ha): 0
- Green foxtail plant response rating (green foxtail; Rate 4 g/ha): 0
- Green foxtail plant response rating (green foxtail; Rate 8 g/ha): 20
- Green foxtail plant response rating (green foxtail; Rate 16 g/ha): 50
- Green foxtail plant response rating (green foxtail; Rate 32 g/ha): 60
- Chickweed plant response rating (chickweed; Rate 2 g/ha): 0
- Chickweed plant response rating (chickweed; Rate 4 g/ha): 0
- Chickweed plant response rating (chickweed; Rate 8 g/ha): 20
- Chickweed plant response rating (chickweed; Rate 16 g/ha): 50
- Chickweed plant response rating (chickweed; Rate 32 g/ha): 60
- Kochia plant response rating (kochia; Rate 2 g/ha): 20
- Kochia plant response rating (kochia; Rate 4 g/ha): 60
- Kochia plant response rating (kochia; Rate 8 g/ha): 80
- Kochia plant response rating (kochia; Rate 16 g/ha): 100
- Kochia plant response rating (kochia; Rate 32 g/ha): 100
- Winter Barley plant response rating (winter barley; Rate 2 g/ha): 0
- Winter Barley plant response rating (winter barley; Rate 4 g/ha): 0
- Winter Barley plant response rating (winter barley; Rate 8 g/ha): 10
- Winter Barley plant response rating (winter barley; Rate 16 g/ha): 10
- Winter Barley plant response rating (winter barley; Rate 32 g/ha): 20
- Lambsquarters plant response rating (lambsquarters; Rate 4 g/ha): 50
- Lambsquarters plant response rating (lambsquarters; Rate 16 g/ha): 50
- Lambsquarters plant response rating (lambsquarters; Rate 32 g/ha): 70
- Galium (1) plant response rating (galium; Rate 2 g/ha): 0
- Galium (2) plant response rating (galium; Rate 2 g/ha): 0
- Galium (1) plant response rating (galium; Rate 4 g/ha): 30
- Galium (2) plant response rating (galium; Rate 4 g/ha): 30
- Galium (1) plant response rating (galium; Rate 8 g/ha): 35
- Galium (2) plant response rating (galium; Rate 8 g/ha): 30
- Galium (1) plant response rating (galium; Rate 16 g/ha): 40
- Galium (2) plant response rating (galium; Rate 16 g/ha): 40
- Galium (1) plant response rating (galium; Rate 32 g/ha): 40
- Galium (2) plant response rating (galium; Rate 32 g/ha): 40
- Wild mustard plant response rating (wild mustard; Rate 2 g/ha): 90
- Wild mustard plant response rating (wild mustard; Rate 4 g/ha): 100
- Wild mustard plant response rating (wild mustard; Rate 8 g/ha): 100
- Wild mustard plant response rating (wild mustard; Rate 32 g/ha): 100
- Wheat (Spring) plant response rating (spring wheat; Rate 2 g/ha): 0
- Wheat (Spring) plant response rating (spring wheat; Rate 4 g/ha): 0
- Wheat (Spring) plant response rating (spring wheat; Rate 8 g/ha): 0
- Wheat (Spring) plant response rating (spring wheat; Rate 16 g/ha): 10
- Wheat (Spring) plant response rating (spring wheat; Rate 32 g/ha): 20
- Wheat (Winter) plant response rating (winter wheat; Rate 2 g/ha): 0
- Wheat (Winter) plant response rating (winter wheat; Rate 4 g/ha): 10
- Wheat (Winter) plant response rating (winter wheat; Rate 8 g/ha): 10
- Wheat (Winter) plant response rating (winter wheat; Rate 16 g/ha): 10
- Wheat (Winter) plant response rating (winter wheat; Rate 32 g/ha): 20
- Wild oat (1) plant response rating (wild oat; Rate 2 g/ha): 0
- Wild oat (2) plant response rating (wild oat; Rate 2 g/ha): 0
- Wild oat (1) plant response rating (wild oat; Rate 4 g/ha): 10
- Wild oat (2) plant response rating (wild oat; Rate 4 g/ha): 0
- Wild oat (1) plant response rating (wild oat; Rate 8 g/ha): 20
- Wild oat (2) plant response rating (wild oat; Rate 8 g/ha): 0
- Wild oat (1) plant response rating (wild oat; Rate 16 g/ha): 20
- Wild oat (2) plant response rating (wild oat; Rate 16 g/ha): 0
- Wild oat (1) plant response rating (wild oat; Rate 32 g/ha): 30
- Wild oat (2) plant response rating (wild oat; Rate 32 g/ha): 20
- Downy brome plant response rating (downy brome; Rate 2 g/ha): 0
- Downy brome plant response rating (downy brome; Rate 4 g/ha): 0
- Downy brome plant response rating (downy brome; Rate 8 g/ha): 0
- Downy brome plant response rating (downy brome; Rate 16 g/ha): 10
- Downy brome plant response rating (downy brome; Rate 32 g/ha): 10
- Wild radish plant response rating (wild radish; Rate 2 g/ha): 0
- Wild radish plant response rating (wild radish; Rate 4 g/ha): 0
- Wild radish plant response rating (wild radish; Rate 8 g/ha): 10
- Wild radish plant response rating (wild radish; Rate 16 g/ha): 100
- Ryegrass plant response rating (ryegrass; Rate 2 g/ha): 0
- Ryegrass plant response rating (ryegrass; Rate 4 g/ha): 0
- Ryegrass plant response rating (ryegrass; Rate 8 g/ha): 0
- Ryegrass plant response rating (ryegrass; Rate 16 g/ha): 0
- Ryegrass plant response rating (ryegrass; Rate 32 g/ha): 20
- Sugar beet plant response rating (sugar beet; Rate 2 g/ha): 70
- Sugar beet plant response rating (sugar beet; Rate 4 g/ha): 100
- Sugar beet plant response rating (sugar beet; Rate 8 g/ha): 100
- Sugar beet plant response rating (sugar beet; Rate 32 g/ha): 100
